From the NIST ThermoML archive (doi:10.1007/s10765-006-0056-z)

Assay: molar heat capacity at constant volume; xn = mol fraction of the nth substance listed
Settings: Fluid (supercritical or subcritical phases), Isochoric Heat Capacity Apparatus

CCCCCCCCCC [decane] + O=C=O
Settings | molar heat capacity at constant volume [J/K/mol]
485.62 K, Mass density=375 kg/m3, x1 = 0.178 | 481.74
486.19 K, Mass density=374.7 kg/m3, x1 = 0.095 | 337.46
486.48 K, Mass density=201.8 kg/m3, x1 = 0.095 | 412.09
486.76 K, Mass density=375 kg/m3, x1 = 0.178 | 484.88
486.96 K, Mass density=131.5 kg/m3, x1 = 0.095 | 529.99
486.96 K, Mass density=201.8 kg/m3, x1 = 0.095 | 409.43
487.15 K, Mass density=155 kg/m3, x1 = 0.095 | 472.85
487.15 K, Mass density=201.8 kg/m3, x1 = 0.095 | 398.22
487.34 K, Mass density=155 kg/m3, x1 = 0.095 | 461.86
487.53 K, Mass density=155 kg/m3, x1 = 0.095 | 453.38
487.72 K, Mass density=155 kg/m3, x1 = 0.095 | 442.23
487.96 K, Mass density=155 kg/m3, x1 = 0.095 | 446.71
488.19 K, Mass density=155 kg/m3, x1 = 0.095 | 447.14
488.49 K, Mass density=176.7 kg/m3, x1 = 0.095 | 436.9
488.58 K, Mass density=176.7 kg/m3, x1 = 0.095 | 427.94
488.68 K, Mass density=176.7 kg/m3, x1 = 0.095 | 434.18
488.82 K, Mass density=339.4 kg/m3, x1 = 0.178 | 500.32
488.87 K, Mass density=176.7 kg/m3, x1 = 0.095 | 431.72
489.06 K, Mass density=176.7 kg/m3, x1 = 0.095 | 425.91
489.44 K, Mass density=339.4 kg/m3, x1 = 0.178 | 498.78
490.01 K, Mass density=408.8 kg/m3, x1 = 0.178 | 466.06
490.58 K, Mass density=398.3 kg/m3, x1 = 0.095 | 337.25
491.54 K, Mass density=281.4 kg/m3, x1 = 0.095 | 350.21
493.44 K, Mass density=339.4 kg/m3, x1 = 0.178 | 492.82
493.44 K, Mass density=375 kg/m3, x1 = 0.178 | 478.92
493.63 K, Mass density=320.2 kg/m3, x1 = 0.095 | 344.98
494.29 K, Mass density=339.4 kg/m3, x1 = 0.178 | 493.86
494.39 K, Mass density=375 kg/m3, x1 = 0.178 | 481.74
494.76 K, Mass density=87 kg/m3, x1 = 0.095 | 750.57
494.95 K, Mass density=374.7 kg/m3, x1 = 0.095 | 342.85
495.33 K, Mass density=176.7 kg/m3, x1 = 0.095 | 423.94
495.52 K, Mass density=241 kg/m3, x1 = 0.095 | 368.51
495.52 K, Mass density=408.8 kg/m3, x1 = 0.178 | 468.89
496.56 K, Mass density=131.5 kg/m3, x1 = 0.095 | 548.39
497.42 K, Mass density=310.8 kg/m3, x1 = 0.178 | 516
497.51 K, Mass density=310.8 kg/m3, x1 = 0.178 | 512.93
497.6 K, Mass density=310.8 kg/m3, x1 = 0.178 | 514.22
499.87 K, Mass density=110.8 kg/m3, x1 = 0.095 | 615.07
499.87 K, Mass density=155 kg/m3, x1 = 0.095 | 463.68
500.06 K, Mass density=375 kg/m3, x1 = 0.178 | 479.47
500.9 K, Mass density=310.8 kg/m3, x1 = 0.178 | 505.18
500.9 K, Mass density=398.3 kg/m3, x1 = 0.095 | 339.7
501.75 K, Mass density=310.8 kg/m3, x1 = 0.178 | 507.27
502.88 K, Mass density=408.8 kg/m3, x1 = 0.178 | 473.26
503.07 K, Mass density=339.4 kg/m3, x1 = 0.178 | 489.49
503.82 K, Mass density=339.4 kg/m3, x1 = 0.178 | 492.32
504.88 K, Mass density=284.3 kg/m3, x1 = 0.178 | 533.78
505.5 K, Mass density=201.8 kg/m3, x1 = 0.095 | 397.32
505.96 K, Mass density=284.3 kg/m3, x1 = 0.178 | 524.24
506.25 K, Mass density=374.7 kg/m3, x1 = 0.095 | 343.97
506.32 K, Mass density=284.3 kg/m3, x1 = 0.178 | 521.66
507.56 K, Mass density=320.2 kg/m3, x1 = 0.095 | 346.42
508.72 K, Mass density=284.3 kg/m3, x1 = 0.178 | 513.42
509.65 K, Mass density=284.3 kg/m3, x1 = 0.178 | 513.42
512.22 K, Mass density=339.4 kg/m3, x1 = 0.178 | 488.69
512.4 K, Mass density=241 kg/m3, x1 = 0.095 | 370.11
512.96 K, Mass density=339.4 kg/m3, x1 = 0.178 | 489.49
513.52 K, Mass density=155 kg/m3, x1 = 0.095 | 469.92
513.7 K, Mass density=176.7 kg/m3, x1 = 0.095 | 436.2
514.1 K, Mass density=110.8 kg/m3, x1 = 0.095 | 628.94
515.19 K, Mass density=281.4 kg/m3, x1 = 0.095 | 353.36
515.37 K, Mass density=398.3 kg/m3, x1 = 0.095 | 347.33
515.86 K, Mass density=131.5 kg/m3, x1 = 0.095 | 553.72
516.11 K, Mass density=87 kg/m3, x1 = 0.095 | 740.97
516.76 K, Mass density=83.3 kg/m3, x1 = 0.178 | 975.91
517.48 K, Mass density=83.3 kg/m3, x1 = 0.178 | 984.15
517.59 K, Mass density=374.7 kg/m3, x1 = 0.095 | 348.19
517.68 K, Mass density=310.8 kg/m3, x1 = 0.178 | 496.69
518.51 K, Mass density=310.8 kg/m3, x1 = 0.178 | 499.76
519.25 K, Mass density=155 kg/m3, x1 = 0.095 | 471.73
520.73 K, Mass density=117.8 kg/m3, x1 = 0.178 | 788.7
521.28 K, Mass density=110.8 kg/m3, x1 = 0.095 | 622.54
522.57 K, Mass density=320.2 kg/m3, x1 = 0.095 | 352.88
523.12 K, Mass density=281.4 kg/m3, x1 = 0.095 | 355.33
523.67 K, Mass density=164.2 kg/m3, x1 = 0.178 | 675.66
524.03 K, Mass density=164.2 kg/m3, x1 = 0.178 | 667.67
524.03 K, Mass density=201.8 kg/m3, x1 = 0.095 | 397.1
524.22 K, Mass density=320.2 kg/m3, x1 = 0.095 | 351.33
524.4 K, Mass density=164.2 kg/m3, x1 = 0.178 | 659.98
524.77 K, Mass density=83.3 kg/m3, x1 = 0.178 | 982.86
526.6 K, Mass density=117.8 kg/m3, x1 = 0.178 | 779.17
528.43 K, Mass density=117.8 kg/m3, x1 = 0.178 | 775.54
529.61 K, Mass density=164.2 kg/m3, x1 = 0.178 | 637.53
529.71 K, Mass density=117.8 kg/m3, x1 = 0.178 | 768.84
530.07 K, Mass density=164.2 kg/m3, x1 = 0.178 | 636.24
530.25 K, Mass density=241 kg/m3, x1 = 0.095 | 375.44
530.62 K, Mass density=164.2 kg/m3, x1 = 0.178 | 631.87
530.67 K, Mass density=339.4 kg/m3, x1 = 0.178 | 492.82
531.4 K, Mass density=339.4 kg/m3, x1 = 0.178 | 493.86
532.44 K, Mass density=374.7 kg/m3, x1 = 0.095 | 354.69
532.99 K, Mass density=87 kg/m3, x1 = 0.095 | 727.63
533.17 K, Mass density=117.8 kg/m3, x1 = 0.178 | 758.57
533.71 K, Mass density=155 kg/m3, x1 = 0.095 | 467.68
534.08 K, Mass density=117.8 kg/m3, x1 = 0.178 | 754.94
535.31 K, Mass density=131.5 kg/m3, x1 = 0.095 | 565.99
535.39 K, Mass density=83.3 kg/m3, x1 = 0.178 | 958.14
535.89 K, Mass density=164.2 kg/m3, x1 = 0.178 | 631.13
536.16 K, Mass density=83.3 kg/m3, x1 = 0.178 | 972.28
536.98 K, Mass density=83.3 kg/m3, x1 = 0.178 | 973.82
536.98 K, Mass density=110.8 kg/m3, x1 = 0.095 | 693.49
537.7 K, Mass density=320.2 kg/m3, x1 = 0.095 | 358.27
538.25 K, Mass density=281.4 kg/m3, x1 = 0.095 | 361.63
543.48 K, Mass density=201.8 kg/m3, x1 = 0.095 | 402.01
543.48 K, Mass density=310.8 kg/m3, x1 = 0.178 | 509.05
543.84 K, Mass density=176.7 kg/m3, x1 = 0.095 | 450.93
544.11 K, Mass density=310.8 kg/m3, x1 = 0.178 | 514.46
544.38 K, Mass density=284.3 kg/m3, x1 = 0.178 | 517.29
546.37 K, Mass density=117.8 kg/m3, x1 = 0.178 | 758.81
546.63 K, Mass density=83.3 kg/m3, x1 = 0.178 | 971.79
547.62 K, Mass density=83.3 kg/m3, x1 = 0.178 | 992.89
550.12 K, Mass density=87 kg/m3, x1 = 0.095 | 712.69
550.12 K, Mass density=320.2 kg/m3, x1 = 0.095 | 360.72
550.48 K, Mass density=281.4 kg/m3, x1 = 0.095 | 369.42
550.84 K, Mass density=155 kg/m3, x1 = 0.095 | 462.13
554.06 K, Mass density=164.2 kg/m3, x1 = 0.178 | 623.38
556.37 K, Mass density=131.5 kg/m3, x1 = 0.095 | 553.72
556.91 K, Mass density=83.3 kg/m3, x1 = 0.178 | 997.75
559.75 K, Mass density=241 kg/m3, x1 = 0.095 | 388.83
560.29 K, Mass density=281.4 kg/m3, x1 = 0.095 | 373.42
561.17 K, Mass density=176.7 kg/m3, x1 = 0.095 | 448.69
561.35 K, Mass density=320.2 kg/m3, x1 = 0.095 | 369.84
568.43 K, Mass density=241 kg/m3, x1 = 0.095 | 393.53
